From patent EP0051773A1, “Penicillins, their salts, process for their preparation and pharmaceutical compositions containing them” (Dr. Karl Thomae GmbH, priority 1980, dated 1982)
In brackets after ≈: the same amount, converted by molar mass.

Key:
[1] = system: Enterobacter cloacae ATCC 13 047; experiment: serial dilution test in microtiter system (bacteriostasis, MIC); format: cell-based; conditions: ATCC13, liquid medium, 18 to 20 h at 37°C, read-out: MHK-Werte Eb. cloacae 13 047
Protocol: (§1) Für die Untersuchungen wurde die Methode des Reihenverdünnungstestes im Mikrotitersystem angewandt. Die Prüfung der Substanzen auf Bakteriostase erfolgte in flüssigem Medium. Es wurde die Bakteriostasewirkung bei folgenden Konzentrationen untersucht.
(§2) Es wurde ein Nährboden folgender Zusammensetzung benutzt: 10 g Pepton, 8 g Fleischextrakt-Oxoid, 3 g Natriumschlorid, 2 g sek. Natriumphosphat werden mit dest. Wasser auf 1000 ml aufgefüllt (pH 7,2-7,4). Lediglich bei der Testung gegen Streptokokken wurde 1% Glucose hinzugefügt. Das Alter der Primärkulturen betrug etwa 20 Stunden. Die Einstellung der Keimsuspension erfolgte am Photometer (nach "Eppendorf") (Reagenzglas-Durchmesser 14 mm, Filter 546 nm) anhand der Trübung einer Bariumsulfat-Vergleichssuspension, die durch eine Bariumsulfat-Aufschwemmung erzeugt wurde, welche durch die Zugabe von 3,0 ml 1%ige Bariumchloridlösung in 97 ml 1%ige Schwefelsäure entstand. Nach der Einstellung wurden Streptococcus Aronson im Verhältnis 1:15 und die übrigen Testkeime im Verhältnis 1:1500 mit einer Kochsalzlösung weiter verdünnt.
(§3) 16 mg der jeweiligen Substanz wurden in 10 ml-Meßkolben eingewogen und mit dem Lösungsmittel bis zur Marke aufgefüllt. Die weitere Verdünnungsreihe wurde mit destilliertem Wasser oder dem jeweiligen Lösungsmittel hergestellt.
(§4) Die Vertiefungen der Mikrotiterplatten wurden mit 0,2 ml Nährmedium, 0,01 ml der entsprechenden Substanzverdünnung und mit einem Tropfen Keimsuspension (0,01 ml) beschickt und 18 bis 20 Stunden bei 37°C bebrütet. Eine Lösungsmittelkontrolle wurde stets mitgeführt.
(§5) Die Ablesung wurde makroskopisch vorgenommen, wobei die jeweilige Grenkonzentration (= niedrigste noch bakteriostatisch wirksame Konzentration) ermittelt wurde.
(§6) Als Testorganismen wurden benützt: - Staphylococcus aureus SG 511, Escherichia coli ATCC 11 775, Pseudomonas aeruginosa Hamburgensis und Walter, Serratia marcescens ATCC 13 880, Klebsiella pneumoniae ATCC 10 031 und BC 6, Proteus mirabilis Hamburgensis, Proteus rettgeri BC 7 und Enterobacter cloacae ATCC 13 047.
(§7) In der folgenden Tabelle 2 sind die ermittelten minimalen Hemmkonzentrationen (MIC) für typische Vertreter der erfindungsgemäßen Verbindungen aufgeführt, wobei sich die Ziffern auf die Penicilline der Tabelle 1 Seite 18 beziehen.

[2] = system: Escherichia coli ATCC 11 775; experiment: as above; format: cell-based; conditions: ATCC11, liquid medium, 18 to 20 h at 37°C, read-out: MHK-Werte E.coli ATCC 11 755
Protocol: as §1, §2, §3, §4, §5, §6, §7

[3] = system: Klebsiella pneumoniae ATCC 10 031; experiment: as above; format: cell-based; conditions: ATCC10, liquid medium, 18 to 20 h at 37°C, read-out: MHK-Werte Kl. pneum. ATCC 10 031
Protocol: as §1, §2, §3, §4, §5, §6, §7

[4] = system: Klebsiella pneumoniae BC 6; experiment: as above; format: cell-based; conditions: BC6, liquid medium, 18 to 20 h at 37°C, read-out: MHK-Werte Kl. pneum. BC 6
Protocol: as §1, §2, §3, §4, §5, §6, §7

[5] = system: Proteus mirabilis Hamburgensis; experiment: as above; format: cell-based; conditions: liquid medium, 18 to 20 h at 37°C, read-out: MHK-Werte Prot. mir. Hbg.
Protocol: as §1, §2, §3, §4, §5, §6, §7

[6] = system: Proteus rettgeri BC 7; experiment: as above; format: cell-based; conditions: Providencia rettgeri, BC7; liquid medium, 18 to 20 h at 37°C; read-out: MHK-Werte Prot. rettg. BC 7
Protocol: as §1, §2, §3, §4, §5, §6, §7

[7] = system: Pseudomonas aeruginosa Hamburgensis; experiment: as above; format: cell-based; conditions: liquid medium, 18 to 20 h at 37°C, read-out: MHK-Werte Pseud. aerug. Hbg.
Protocol: as §1, §2, §3, §4, §5, §6, §7

[8] = system: Pseudomonas aeruginosa Walter; experiment: as above; format: cell-based; conditions: liquid medium, 18 to 20 h at 37°C, read-out: MHK-Werte Pseud. aerug. Walter
Protocol: as §1, §2, §3, §4, §5, §6, §7

[9] = system: Serratia marcescens ATCC 13 880; experiment: as above; format: cell-based; conditions: ATCC13, liquid medium, 18 to 20 h at 37°C, read-out: MHK-Werte Serr. marcesc. ATCC 13 880
Protocol: as §1, §2, §3, §4, §5, §6, §7

[10] = system: Staphylococcus aureus SG 511; experiment: as above; format: cell-based; conditions: SG511, liquid medium, 18 to 20 h at 37°C, read-out: MHK-Werte Staph. aureus SG 511
Protocol: as §1, §2, §3, §4, §5, §6, §7

[11] = system: E.coli ATCC 11 775; experiment: experimental intraperitoneal infection in mice, ED50 (survival); format: in vivo, Mäuse; conditions: Escherichia coli, ATCC 11 / ATCC 1175, sc, 168 h; female NMRI mice, i.p. infection, s.c. application, treated once, 7 days observation
Protocol: Eine Reihe der erfindungsgemäßen Verbindungen wurde in vivo bei experimentellen Infektionen an Mäusen untersucht. Man verwendete als pathogene Bakterien E.coli ATCC 11 775 und Pseudomonas aeruginosa Walter. Es wurde eine intraperitoneale Infektion mit 0,2 ml einer 5%igen Mucinsuspension der Bakterien gesetzt. Dies entspricht etwa 2x10^6 Keime E.coli bzw. 8x10^5 Keime Pseudomonas/Maus. Weibliche Mäuse vom Stamm NMRI wurden in Gruppen von jeweils 10 Tieren aufgeteilt, zwei Gruppen blieben unbehandelt, die restlichen Gruppen wurden mit verschiedenen Dosen der jeweiligen erfindungsgemäßen Penicilline zur Bestimmung der ED50 (Dosis, bei der 50 % der Tiere überleben) behandelt. Bei der E.coli-Infektion wurde einmal therapiert. Bei der Pseudomonas-Infektion wurde dreimal behandelt.
Der Beobachtungszeitraum betrug in beiden Fällen 7 Tage. Die Ergebnisse dieser Teste mit repräsentativen Vertretern der erfindungsgemäßen Penicilline sind in der Tabelle 3 dargestellt.

SMILES | MIC [1] [µg/mL] | MIC [2] [µg/mL] | MIC [3] [µg/mL] | MIC [4] [µg/mL] | MIC [5] [µg/mL] | MIC [6] [µg/mL] | MIC [7] [µg/mL] | MIC [8] [µg/mL] | MIC [9] [µg/mL] | MIC [10] [µg/mL] | ED50 [11] [mg/kg]
CC1(C)S[C@@H]2[C@H](NC(=O)[C@H](NC(=O)N3CCN(S(C)(=O)=O)C3=O)c3ccccc3)C(=O)N2[C@H]1C(=O)O [B, Mezlocillin, reference compound] | 4 (≈ 7.41 µM) | 2 (≈ 3.71 µM) | 4 (≈ 7.41 µM) | 4 (≈ 7.41 µM) | 0.25 (≈ 0.463 µM) | 1 (≈ 1.85 µM) | 16 (≈ 29.7 µM) | 32 (≈ 59.3 µM) | 0.5 (≈ 0.927 µM) | 0.25 (≈ 0.463 µM) | > 100
CC1(C)S[C@@H]2[C@H](NC(=O)[C@H](NC(=O)Nc3cnccc3O)c3ccccc3)C(=O)N2[C@H]1C(=O)O [C, D-α-[(4-Hydroxy-3-pyridyl)-ureido]-benzylpenicillin-Natrium, reference compound] | 8 (≈ 16.5 µM) | 2 (≈ 4.12 µM) | 32 (≈ 65.9 µM) | 32 (≈ 65.9 µM) | 0.25 (≈ 0.515 µM) | 1 (≈ 2.06 µM) | 8 (≈ 16.5 µM) | 8 (≈ 16.5 µM) | 0.5 (≈ 1.03 µM) | – | –
CC1(C)S[C@@H]2[C@H](NC(=O)[C@H](NC(=O)Nc3cnc(Nc4ccc(S(N)(=O)=O)cc4)nc3O)C3=CCC=CC3)C(=O)N2[C@H]1C(=O)O [Verbindung 12] | – | – | – | – | – | – | – | – | – | – | 5
CN(C)S(=O)(=O)c1ccc(Nc2ncc(NC(=O)N[C@@H](C(=O)N[C@@H]3C(=O)N4[C@@H]3SC(C)(C)[C@@H]4C(=O)O)c3ccc(O)cc3)c(O)n2)cc1 [Verbindung 15] | 2 (≈ 2.85 µM) | 0.25 (≈ 0.357 µM) | 1 (≈ 1.43 µM) | 1 (≈ 1.43 µM) | 0.12 (≈ 0.171 µM) | 1 (≈ 1.43 µM) | 2 (≈ 2.85 µM) | 2 (≈ 2.85 µM) | 0.25 (≈ 0.357 µM) | 0.5 (≈ 0.714 µM) | –

Continued, in another order:

MIC [1] [µg/mL] | MIC [2] [µg/mL] | MIC [3] [µg/mL] | MIC [4] [µg/mL] | MIC [5] [µg/mL] | MIC [6] [µg/mL] | MIC [7] [µg/mL] | MIC [8] [µg/mL] | MIC [9] [µg/mL] | MIC [10] [µg/mL] | SMILES | ED50 [11] [mg/kg]
2 (≈ 3.02 µM) | 0.5 (≈ 0.754 µM) | 2 (≈ 3.02 µM) | 1 (≈ 1.51 µM) | 0.06 (≈ 0.0905 µM) | 0.5 (≈ 0.754 µM) | 4 (≈ 6.04 µM) | 2 (≈ 3.02 µM) | 0.25 (≈ 0.377 µM) | 0.12 (≈ 0.181 µM) | CC1(C)S[C@@H]2[C@H](NC(=O)[C@H](NC(=O)Nc3cnc(Nc4ccc(S(N)(=O)=O)cc4)nc3O)c3cccs3)C(=O)N2[C@H]1C(=O)O [Verbindung 2] | –
1 (≈ 1.49 µM) | 0.25 (≈ 0.372 µM) | 2 (≈ 2.97 µM) | 2 (≈ 2.97 µM) | 0.06 (≈ 0.0892 µM) | 0.25 (≈ 0.372 µM) | 2 (≈ 2.97 µM) | 2 (≈ 2.97 µM) | 0.25 (≈ 0.372 µM) | 0.5 (≈ 0.743 µM) | CC1(C)S[C@@H]2[C@H](NC(=O)[C@H](NC(=O)Nc3cnc(Nc4cccc(S(N)(=O)=O)c4)nc3O)c3ccc(O)cc3)C(=O)N2[C@H]1C(=O)O [Verbindung 5] | –
0.5 (≈ 0.745 µM) | 0.12 (≈ 0.179 µM) | 0.5 (≈ 0.745 µM) | 1 (≈ 1.49 µM) | 0.03 (≈ 0.0447 µM) | 0.5 (≈ 0.745 µM) | 1 (≈ 1.49 µM) | 2 (≈ 2.98 µM) | 0.12 (≈ 0.179 µM) | 0.12 (≈ 0.179 µM) | CNS(=O)(=O)c1ccc(Nc2ncc(NC(=O)N[C@@H](C(=O)N[C@@H]3C(=O)N4[C@@H]3SC(C)(C)[C@@H]4C(=O)O)c3ccccc3)c(O)n2)cc1 [Verbindung 8] | –
1 (≈ 1.39 µM) | 0.25 (≈ 0.347 µM) | 2 (≈ 2.77 µM) | 1 (≈ 1.39 µM) | 0.25 (≈ 0.347 µM) | 0.5 (≈ 0.693 µM) | 2 (≈ 2.77 µM) | 2 (≈ 2.77 µM) | 0.25 (≈ 0.347 µM) | 0.25 (≈ 0.347 µM) | CNS(=O)(=O)c1ccc(Nc2ncc(NC(=O)N[C@@H](C(=O)N[C@@H]3C(=O)N4[C@@H]3SC(C)(C)[C@@H]4C(=O)O)c3ccc(O)c(Cl)c3)c(O)n2)cc1 [Verbindung 13] | –
